This is an account of results in patent publication US20260001928A1 (CORTERIA PHARMACEUTICALS, priority 2022, published 2026).

One test concerns the target T1, CFR1R receptor (Homo sapiens, UniProt P34998).
T1 construct: host or cells: CHO-K1 (clone 2)
T1 sequence (P34998 24-415): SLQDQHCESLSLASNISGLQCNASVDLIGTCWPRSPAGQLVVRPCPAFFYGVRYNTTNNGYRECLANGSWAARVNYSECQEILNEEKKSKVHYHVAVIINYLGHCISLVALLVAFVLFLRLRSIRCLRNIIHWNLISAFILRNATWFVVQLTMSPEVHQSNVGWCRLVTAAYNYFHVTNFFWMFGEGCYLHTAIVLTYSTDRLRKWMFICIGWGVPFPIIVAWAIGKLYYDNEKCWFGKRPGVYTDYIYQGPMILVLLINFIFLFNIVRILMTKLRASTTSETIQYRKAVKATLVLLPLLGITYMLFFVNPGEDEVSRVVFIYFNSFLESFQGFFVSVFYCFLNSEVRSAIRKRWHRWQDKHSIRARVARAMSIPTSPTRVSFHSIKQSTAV
Description: Activity at anti-target CFR1R receptor, cAMP assay in CRF1R-overexpression CHO-K1 cells. It is filed as cell-based. The settings on record: 100% = Sauvagine at 100 nM; for EC50: cAMP. The method, boiled down: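 Signal is normalised to 100 nM Sauvagine, taken as 100% activation, in clone 2 cells plated at a final 4000 cells/well from frozen stocks.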

For a further test, the target named is T2, human CRF2a receptor (Homo sapiens, UniProt Q13324).
T2 construct: expressed in transfected cells; host or cells: TeloHEAC cells
T2 sequence (Q13324 1-411): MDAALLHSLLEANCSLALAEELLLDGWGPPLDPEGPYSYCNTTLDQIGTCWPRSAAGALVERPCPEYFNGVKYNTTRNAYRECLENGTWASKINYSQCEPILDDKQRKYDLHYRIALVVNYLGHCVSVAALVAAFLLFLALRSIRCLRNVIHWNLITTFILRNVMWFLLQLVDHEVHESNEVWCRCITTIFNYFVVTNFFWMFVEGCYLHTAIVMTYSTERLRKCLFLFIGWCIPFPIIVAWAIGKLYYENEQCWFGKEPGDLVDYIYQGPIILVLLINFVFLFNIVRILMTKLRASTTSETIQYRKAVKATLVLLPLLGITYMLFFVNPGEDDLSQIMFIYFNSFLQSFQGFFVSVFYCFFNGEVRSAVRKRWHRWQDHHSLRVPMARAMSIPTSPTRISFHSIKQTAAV
Description: Activity at human CRF2a receptor, cAMP functional assay in TeloHEAC cells. The note with it: TeloHEAC cells stably expressing human CRF2a receptor, relative to urocortin 2 (100 nM = 100%). Type of test: cell-based. The method, boiled down:
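TeloHEAC cells stably expressing human CRF2a (10000 cells/well) were treated with 16-point 1:2 compound dilutions in HBSS/20 mM HEPES with IBMX for 30 min at 37° C. cAMP was read by HTRF (665/620 nm ratio). EC50 was the concentration giving 50% activation, with 100 nM urocortin 2 set as 100%.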

*1 amine or outer side, *2 acyl side, *3 side chain or, on linkers, in order; H or OH if unused. Where a SMILES comes first, the peptide text is derived from it. Side-chain parts run from the residue outwards. [ ]: non-standard residue; d: D form. The star is where a group is joined. C16 diacid = O=C(O)CCCCCCCCCCCCCCC(=O)*; γGlu = O=C(O)[C@H](CCC(=O)[*:2])N[*:1]; αMeL = CC(C)C[C@](C)(N)C(=O)O; Pentanoyl = CCCCC(=O)*; AEEA = NCCOCCOCC(=O)O; Aib = CC(C)(N)C(=O)O

For the molecule `CCCCC(=O)N[C@H](C(=O)N[C@@H](CC(C)C)C(=O)N[C@@H](CO)C(=O)N[C@@H](CC(C)C)C(=O)N[C@@H](CC(=O)O)C(=O)N[C@@H](C(=O)N1CCC[C@H]1C(=O)N[C@H](C(=O)N[C@@H](CCCCN)C(=O)N[C@@H](CC(C)C)C(=O)N[C@@H](CCCCNC(=O)CC[C@H](NC(=O)CCCCCCCCCCCCCCC(=O)O)C(=O)O)C(=O)N[C@@H](CCCCN)C(=O)N[C@H](C(=O)N[C@@H](CC(C)C)C(=O)N[C@@H](CC(C)C)C(=O)N[C@@H](CCC(=O)O)C(=O)N[C@@H](CCC(N)=O)C(=O)N[C@@H](CCC(=O)O)C(=O)N[C@@H](CCCCN)C(=O)N[C@@H](CCC(N)=O)C(=O)N[C@@H](CCCCN)C(=O)N[C@@H](CCCCN)C(=O)N[C@@H](CCC(N)=O)C(=O)N[C@@H](CCCNC(=N)N)C(=O)N[C@@H](CCC(=O)O)C(=O)N[C@@H](CCC(N)=O)C(=O)N[C@@H](C)C(=O)N[C@@H](CCC(=O)O)C(=O)N[C@H](C(=O)N[C@@H](CC(N)=O)C(=O)N[C@@H](CCCCN)C(=O)N[C@@H](CCC(N)=O)C(=O)N[C@H](C(=O)N[C@@H](CC(C)C)C(=O)N[C@@H](C)C(=O)N[C@@H](CCC(N)=O)C(=O)N[C@H](C(N)=O)C(C)C)[C@@H](C)CC)[C@@H](C)O)[C@@H](C)CC)[C@@H](C)CC)C(C)C)C(C)C` [compound 37] (Pentanoyl-VLSLD[dV]PIKLK([γGlu-C16 diacid])KILLEQEKQKKQREQAETNKQILAQV-NH2), at CFR1R receptor, the “Emax (% I)” value is 22 % I and the concentration for a half-maximal effect (EC50) was greater than 250 nM. The molecule further returned a concentration for a half-maximal effect (EC50) on human CRF2a receptor of 0.13 nM.

`CC[C@H](C)[C@H](N)C(=O)N[C@H](C(=O)N[C@@H](CC(C)C)C(=O)N[C@@H](CO)C(=O)N[C@@H](CC(C)C)C(=O)N[C@@H](CC(=O)O)C(=O)N[C@H](C(=O)N1CCC[C@H]1C(=O)N[C@H](C(=O)N[C@@H](CCCCN)C(=O)N[C@@](C)(CC(C)C)C(=O)N[C@@H](CCCCNC(=O)CC[C@H](NC(=O)CCCCCCCCCCCCCCC(=O)O)C(=O)O)C(=O)N[C@@H](CCCCN)C(=O)N[C@H](C(=O)N[C@@H](CC(C)C)C(=O)N[C@@H](CC(C)C)C(=O)N[C@@H](CCC(=O)O)C(=O)N[C@@H](CCC(N)=O)C(=O)N[C@@H](CCC(=O)O)C(=O)N[C@@H](CCCCN)C(=O)N[C@@H](CCC(N)=O)C(=O)N[C@@H](CCCCN)C(=O)N[C@@H](CCCCN)C(=O)N[C@@H](CCC(N)=O)C(=O)N[C@@H](CCCNC(=N)N)C(=O)N[C@@H](CCC(=O)O)C(=O)N[C@@H](CCC(N)=O)C(=O)N[C@@H](C)C(=O)N[C@@H](CCC(=O)O)C(=O)N[C@H](C(=O)N[C@@H](CC(N)=O)C(=O)NC(C)(C)C(=O)N[C@@H](CCC(N)=O)C(=O)N[C@H](C(=O)N[C@@H](CC(C)C)C(=O)N[C@@H](C)C(=O)N[C@@H](CCC(N)=O)C(=O)N[C@H](C(N)=O)C(C)C)[C@@H](C)CC)[C@@H](C)O)[C@@H](C)CC)[C@@H](C)CC)C(C)C)C(C)C` [compound 38] (H-IVLSLDVPIK[αMeL]K([γGlu-C16 diacid])KILLEQEKQKKQREQAETN[Aib]QILAQV-NH2): on CFR1R receptor, the “Emax (% I)” value was determined as 6 % I and the EC50 was greater than 250 nM. For the same molecule, the EC50 on human CRF2a receptor was found to be 0.49 nM.

Consider `CC[C@H](C)[C@H](NC(C)=O)C(=O)N[C@H](C(=O)N[C@@H](CC(C)C)C(=O)N[C@@H](CO)C(=O)N[C@@H](CC(C)C)C(=O)N[C@@H](CC(=O)O)C(=O)N[C@H](C(=O)N1CCC[C@H]1C(=O)N[C@H](C(=O)N[C@@H](CCCCN)C(=O)N[C@@H](CC(C)C)C(=O)N[C@@H](CCCCNC(=O)CC[C@H](NC(=O)CCCCCCCCCCCCCCC(=O)O)C(=O)O)C(=O)N[C@@H](CCCCN)C(=O)N[C@H](C(=O)N[C@@H](CC(C)C)C(=O)N[C@@H](CC(C)C)C(=O)N[C@@H](CCC(=O)O)C(=O)N[C@@H](CCC(N)=O)C(=O)N[C@@H](CCC(=O)O)C(=O)N[C@@H](CCCCN)C(=O)N[C@@H](CCC(N)=O)C(=O)N[C@@H](CCCCN)C(=O)N[C@@H](CCCCN)C(=O)N[C@@H](CCC(N)=O)C(=O)N[C@@H](CCCNC(=N)N)C(=O)N[C@@H](CCC(=O)O)C(=O)N[C@@H](CCC(N)=O)C(=O)N[C@@H](C)C(=O)N[C@@H](CCC(=O)O)C(=O)N[C@H](C(=O)N[C@@H](CC(N)=O)C(=O)NC(C)(C)C(=O)N[C@@H](CCC(N)=O)C(=O)N[C@H](C(=O)N[C@@H](CC(C)C)C(=O)N[C@@H](C)C(=O)N[C@@H](CCC(N)=O)C(=O)N[C@H](C(N)=O)C(C)C)[C@@H](C)CC)[C@@H](C)O)[C@@H](C)CC)[C@@H](C)CC)C(C)C)C(C)C` [compound 39] (Ac-IVLSLDVPIKLK([γGlu-C16 diacid])KILLEQEKQKKQREQAETN[Aib]QILAQV-NH2), for which, at CFR1R receptor, the “Emax (% I)” value is 2 % I and the EC50 is greater than 250 nM. The molecule further had an EC50 on human CRF2a receptor of 0.53 nM.

As to `CC[C@H](C)[C@H](NC(C)=O)C(=O)N[C@H](C(=O)N[C@@H](CC(C)C)C(=O)N[C@@H](CO)C(=O)N[C@@H](CC(C)C)C(=O)N[C@@H](CC(=O)O)C(=O)N[C@@H](C(=O)N1CCC[C@H]1C(=O)N[C@H](C(=O)N[C@@H](CCCCN)C(=O)N[C@@H](CC(C)C)C(=O)N[C@@H](CCCCNC(=O)CC[C@H](NC(=O)CC[C@H](NC(=O)CCCCCCCCCCCCCCC(=O)O)C(=O)O)C(=O)O)C(=O)N[C@@H](CCCCN)C(=O)N[C@H](C(=O)N[C@@H](CC(C)C)C(=O)N[C@@H](CC(C)C)C(=O)N[C@@H](CCC(=O)O)C(=O)N[C@@H](CCC(N)=O)C(=O)N[C@@H](CCC(=O)O)C(=O)N[C@@H](CCCCN)C(=O)N[C@@H](CCC(N)=O)C(=O)N[C@@H](CCCCN)C(=O)N[C@@H](CCCCN)C(=O)N[C@@H](CCC(N)=O)C(=O)N[C@@H](CCCNC(=N)N)C(=O)N[C@@H](CCC(=O)O)C(=O)N[C@@H](CCC(N)=O)C(=O)N[C@@H](C)C(=O)N[C@@H](CCC(=O)O)C(=O)N[C@H](C(=O)N[C@@H](CC(N)=O)C(=O)NC(C)(C)C(=O)N[C@@H](CCC(N)=O)C(=O)N[C@H](C(=O)N[C@@H](CC(C)C)C(=O)N[C@@H](C)C(=O)N[C@@H](CCC(N)=O)C(=O)N[C@H](C(N)=O)C(C)C)[C@@H](C)CC)[C@@H](C)O)[C@@H](C)CC)[C@@H](C)CC)C(C)C)C(C)C` [compound 41] (Ac-IVLSLD[dV]PIKLK([γGlu-γGlu-C16 diacid])KILLEQEKQKKQREQAETN[Aib]QILAQV-NH2), on CFR1R receptor, the “Emax (% I)” value stood at 7 % I and the EC50 is greater than 250 nM. The EC50 at human CRF2a receptor turned out to be 1.85 nM.

As to `CC[C@H](C)[C@H](NC(C)=O)C(=O)N[C@H](C(=O)N[C@@H](CC(C)C)C(=O)N[C@@H](CO)C(=O)N[C@@H](CC(C)C)C(=O)N[C@@H](CC(=O)O)C(=O)N[C@@H](C(=O)N1CCC[C@H]1C(=O)N[C@H](C(=O)N[C@@H](CCCCN)C(=O)N[C@@H](CC(C)C)C(=O)N[C@@H](CCCCNC(=O)COCCOCCNC(=O)COCCOCCNC(=O)CC[C@H](NC(=O)CCCCCCCCCCCCCCC(=O)O)C(=O)O)C(=O)N[C@@H](CCCCN)C(=O)N[C@H](C(=O)N[C@@H](CC(C)C)C(=O)N[C@@H](CC(C)C)C(=O)N[C@@H](CCC(=O)O)C(=O)N[C@@H](CCC(N)=O)C(=O)N[C@@H](CCC(=O)O)C(=O)N[C@@H](CCCCN)C(=O)N[C@@H](CCC(N)=O)C(=O)N[C@@H](CCCCN)C(=O)N[C@@H](CCCCN)C(=O)N[C@@H](CCC(N)=O)C(=O)N[C@@H](CCCNC(=N)N)C(=O)N[C@@H](CCC(=O)O)C(=O)N[C@@H](CCC(N)=O)C(=O)N[C@@H](C)C(=O)N[C@@H](CCC(=O)O)C(=O)N[C@H](C(=O)N[C@@H](CC(N)=O)C(=O)NC(C)(C)C(=O)N[C@@H](CCC(N)=O)C(=O)N[C@H](C(=O)N[C@@H](CC(C)C)C(=O)N[C@@H](C)C(=O)N[C@@H](CCC(N)=O)C(=O)N[C@H](C(N)=O)C(C)C)[C@@H](C)CC)[C@@H](C)O)[C@@H](C)CC)[C@@H](C)CC)C(C)C)C(C)C` [compound 42] (Ac-IVLSLD[dV]PIKLK([AEEA-AEEA-γGlu-C16 diacid])KILLEQEKQKKQREQAETN[Aib]QILAQV-NH2), at CFR1R receptor, the “Emax (% I)” value is given as 1 % I and the EC50 is greater than 250 nM. This molecule also gave an EC50 on human CRF2a receptor of 3.08 nM.
